≈ marks a conversion by molar mass, not a printed value. Read-outs that look alike come from different tables or passages of the source.

Assay [1] has as its system K. pneumoniae isolate 850793. Kind of assay: Minimum inhibitory concentration (MIC) results, isolate 850793. The note with it: for MIC: Klebsiella pneumoniae, read-out: MIC Value. It counts as cell-based. The text has this: (§1) The ability to view additional or varied information may be set by a user as a preference on a customized basis, or the information may be hidden and made available based on a request or selection from a user according to some embodiments. For example, a display interface may be configured such that the user can make a selection on a short form name or symbol to expand a field or open a new window on the display that provides detailed antibiotic resistance data or other diagnostically useful information for a subject sample. For example, in TABLE 17, the differences in minimum inhibitory concentration (MIC) results for two isolate species are provided.
(§2) In TABLE 18, the isolates are numbered and linked to an isolate species (K. pneumoniae); resistome profiles including the species (K1), phenotype (CRE), genotype (IMP and C1), and profile uniqueness identifiers indicating sequential unique patterns compared to an associated database (1-1 and 2-1, respectively); Acuitas MDRO Gene Test results (IMP(A) and CTX-M(A)); and reported genotypes listed in rank order of clinical importance (IMP-26, CTX-M-15, and SHV-28(u), and IMP-4, CTX-M-15, SHV-1(b), and TEM, respectively). The trailing “1s” in the assigned resistome profiles (i.e., the second digit of each profile uniqueness identifier) reflect the first occurrences of these patterns/profiles derived based on data collected from subject sample measurements. In this example, the tests are not designed to detect SHV, TEM, ACT/MIR, CMY-2, DHA-1, ACT-16, or VEB-1.

The subject of assay [2] is K. pneumoniae isolate 850707. Description: Minimum inhibitory concentration (MIC) results, isolate 850707. As to conditions: for MIC: Klebsiella pneumoniae, read-out: MIC Value. In kind it is cell-based.
Description: as §1, §2

In assay [3] the test system is cephalosporin-resistant (3rd or 4th generation) Gram-negative bacillus. The note with it: CephR-GNB; Revised (M100-S20); cited from earlier work.
The test system of assay [4] is carbapenem-resistant Enterobacteriaceae. The note with it: CRE, cited from earlier work.
For assay [5], the system named is D-alanyl-D-lactate variation of NAM/NAG-peptide subunits. As to conditions: D-alanyl-D-lactate versus D-alanyl-D-alanine; cited from earlier work.
For assay [6], the system named is D-alanyl-D-serine variation of NAM/NAG-peptide subunits. As to conditions: D-alanyl-D-serine versus D-alanyl-D-alanine; cited from earlier work.
The mark [7] stands for this setting: Isolate No. 850793, K. pneumoniae, IMP-4, CTX-M-15, SHV-1(b), TEM.
[8] abbreviates: Isolate No. 850707, K. pneumoniae, IMP-26, CTX-M-15, SHV-28(u).

On to `NCC[C@H](O)C(=O)N[C@@H]1C[C@H](N)[C@@H](O[C@H]2O[C@H](CN)[C@@H](O)[C@H](O)[C@H]2O)[C@H](O)[C@H]1O[C@H]1O[C@H](CO)[C@@H](O)[C@H](N)[C@H]1O` [Amikacin], for which the MIC in assay [1] (setting [7]) and in assay [2] (setting [8]) was 32 µg/mL (≈ 54.6 µM) each time.
On to `CC1(C)S[C@@H]2[C@H](NC(=O)[C@H](N)c3ccccc3)C(=O)N2[C@H]1C(=O)O` [Ampicillin], for which the MIC in assay [1] (setting [7]) and in assay [2] (setting [8]) was 32 µg/mL (≈ 91.6 µM) in each case.
In the case of `CO/N=C(\C(=O)N[C@@H]1C(=O)N2C(C(=O)[O-])=C(C[N+]3(C)CCCC3)CS[C@H]12)c1csc(N)n1` [Cefepime], the MIC in assay [1] (setting [7]) worked out at 16 µg/mL (≈ 33.3 µM). In assay [2] (setting [8]), the MIC is 16 µg/mL (≈ 33.3 µM). In assay [3], the “MIC breakpoint, Intermediate” value is 16 µg/mL (≈ 33.3 µM); the “MIC breakpoint, Resistant” value was at least 32 µg/mL; the “MIC breakpoint, Susceptible” value was at most 8 µg/mL.
For the compound `CO/N=C(\C(=O)N[C@@H]1C(=O)N2C(C(=O)O)=C(COC(C)=O)CS[C@H]12)c1csc(N)n1` [Cefotaxime], in assay [4] (Revised (M100-S20)), the “MIC breakpoint, Intermediate” value was 2 µg/mL (≈ 4.39 µM); the “MIC breakpoint, Resistant” value is at least 4 µg/mL; the “MIC breakpoint, Susceptible” value was at most 1 µg/mL.
In the case of `CC(C)(O/N=C(\C(=O)N[C@@H]1C(=O)N2C(C(=O)[O-])=C(C[n+]3ccccc3)CS[C@H]12)c1csc(N)n1)C(=O)O` [Ceftazidime], in assay [4] (Revised (M100-S20)), the “MIC breakpoint, Intermediate” value is 8 µg/mL (≈ 14.6 µM); the “MIC breakpoint, Resistant” value is at least 16 µg/mL; the “MIC breakpoint, Susceptible” value is at most 4 µg/mL. Moreover, in assay [1] (setting [7]), the MIC was 128 µg/mL (≈ 234 µM). In addition, in assay [2] (setting [8]), the MIC was found to be 16 µg/mL (≈ 29.3 µM). Besides, in assay [3], the “MIC breakpoint, Intermediate” value was 8 µg/mL (≈ 14.6 µM); the “MIC breakpoint, Resistant” value is at least 16 µg/mL; the “MIC breakpoint, Susceptible” value is at most 4 µg/mL.
As to `CO/N=C(\C(=O)N[C@@H]1C(=O)N2C(C(=O)O)=C(CSc3nc(=O)c(=O)[nH]n3C)CS[C@H]12)c1csc(N)n1` [Ceftriaxone], in assay [4] (Revised (M100-S20)), the “MIC breakpoint, Intermediate” value is 2 µg/mL (≈ 3.61 µM); the “MIC breakpoint, Resistant” value is at least 4 µg/mL; the “MIC breakpoint, Susceptible” value is at most 1 µg/mL.
Take `C[C@@H](O)[C@H]1C(=O)N2C(C(=O)O)=C(S[C@@H]3CN[C@H](CNS(N)(=O)=O)C3)[C@H](C)[C@H]12` [Doripenem]: in assay [4] (Current Breakpoints (M100-S22)), the “MIC breakpoint, Intermediate” value was 2 µg/mL (≈ 4.76 µM); the “MIC breakpoint, Resistant” value was at least 4 µg/mL; the “MIC breakpoint, Susceptible” value was at most 1 µg/mL. For the same compound, the MIC in assay [1] (setting [7]) came to 4 µg/mL (≈ 9.51 µM). Moreover, in assay [2] (setting [8]), the MIC turned out to be 32 µg/mL (≈ 76.1 µM).
On to `C[C@@H](O)[C@H]1C(=O)N2C(C(=O)O)=C(S[C@@H]3CN[C@H](C(=O)Nc4cccc(C(=O)O)c4)C3)[C@H](C)[C@H]12` [Ertapenem], for which, in assay [4] (Current Breakpoints (M100-S22)), the “MIC breakpoint, Intermediate” value is 1 µg/mL (≈ 2.1 µM); the “MIC breakpoint, Resistant” value was at least 2 µg/mL; the “MIC breakpoint, Susceptible” value is at most 0.5 µg/mL. The MIC in assay [1] (setting [7]) amounted to 1 µg/mL (≈ 2.1 µM). For the same compound, in assay [2] (setting [8]), the MIC came out at 6 µg/mL (≈ 12.6 µM).
As for `C[C@@H](O)[C@H]1C(=O)N2C(C(=O)O)=C(SCCN=CN)C[C@H]12` [Imipenem], the MIC in assay [1] (setting [7]) came to 8 µg/mL (≈ 26.7 µM); in assay [2] (setting [8]), 2 µg/mL (≈ 6.68 µM).
For the compound `C[C@H]1COc2c(N3CCN(C)CC3)c(F)cc3c(=O)c(C(=O)O)cn1c23` [Levofloxacin], the results for the MIC in assay [1] (setting [7]) and in assay [2] (setting [8]) were 0.5 µg/mL (≈ 1.38 µM) and 1 µg/mL (≈ 2.77 µM), respectively.
`C[C@@H](O)[C@H]1C(=O)N2C(C(=O)O)=C(S[C@@H]3CN[C@H](C(=O)N(C)C)C3)[C@H](C)[C@H]12` [Meropenem]: in assay [4] (Current Breakpoints (M100-S22)), the “MIC breakpoint, Intermediate” value was 2 µg/mL (≈ 5.22 µM); the “MIC breakpoint, Resistant” value was at least 4 µg/mL; the “MIC breakpoint, Susceptible” value is at most 1 µg/mL. Moreover, in assay [1] (setting [7]), the MIC came out at 8 µg/mL (≈ 20.9 µM). The MIC in assay [2] (setting [8]) was 32 µg/mL (≈ 83.4 µM).
`CN(C)c1cc(NC(=O)CNC(C)(C)C)c(O)c2c1C[C@H]1C[C@H]3[C@H](N(C)C)C(O)=C(C(N)=O)C(=O)[C@@]3(O)C(O)=C1C2=O` [Tigecycline]: the MIC in assay [1] was found to be 1 µg/mL (≈ 1.71 µM); in assay [2] it was 2 µg/mL (≈ 3.41 µM).
On to `CN[C@H](CC(C)C)C(=O)N[C@H]1C(=O)N[C@@H](CC(N)=O)C(=O)N[C@H]2C(=O)N[C@H]3C(=O)N[C@H](C(=O)N[C@H](C(=O)O)c4cc(O)cc(O)c4-c4cc3ccc4O)[C@H](O)c3ccc(c(Cl)c3)Oc3cc2cc(c3O[C@@H]2O[C@H](CO)[C@@H](O)[C@H](O)[C@H]2O[C@H]2C[C@](C)(N)[C@H](O)[C@H](C)O2)Oc2ccc(cc2Cl)[C@H]1O` [vancomycin], for which the decrease in affinity in assay [5] is reported as 1000 fold. Besides, in assay [6], the “loss of affinity between vancomycin and the peptide” value is recorded as “six-fold”.
For Colistin/TWEEN, the “MIC Value” in assay [1] (setting [7]) and in assay [2] (setting [8]) was 0.12 µg/mL throughout.

Values taken from patent publication US20200286590A1, “SYSTEMS, APPARATUS, AND METHODS FOR GENERATING AND ANALYZING RESISTOME PROFILES” (priority 2014, published 2020).
